{"source": "paper PMC8248988", "about": "“A signal capture and proofreading mechanism for the KDEL-receptor explains selectivity and dynamic range in ER retrieval” (eLife, 2021)", "type_in_all_cases": "cell-based", "conditions_in_all_cases": "COS-7 cells", "key": {"[1]": {"molecular_target": "T1, human KDELR1 N54K/E117Q (Homo sapiens, UniProt P24390, E117Q/N54K)", "T1 construct": "expressed in transfected cells; host or cells: COS-7", "T1 sequence (P24390 whole entry N54K/E117Q)": "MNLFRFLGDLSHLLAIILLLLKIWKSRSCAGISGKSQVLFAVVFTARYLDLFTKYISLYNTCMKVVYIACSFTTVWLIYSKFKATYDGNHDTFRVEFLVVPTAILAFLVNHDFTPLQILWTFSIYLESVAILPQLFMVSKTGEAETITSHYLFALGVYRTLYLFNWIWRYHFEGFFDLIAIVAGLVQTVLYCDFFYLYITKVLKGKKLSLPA", "test": "ER retrieval assay, KDELR1 N54K/E117Q-GFP", "excerpt": "(§1) To create KDELR1-GFP and KDELR2-GFP, the reading frames for Homo sapiens KDELR1 (Uniprot: P24390) and KDELR2 (Uniprot: P33947) were cloned into the pEF5/FRT low level mammalian expression vector with a C-terminal 20 amino acid linker made up of 5 copies of Gly-Ser-Ser-Ser followed by GFP. Specific point mutations were introduced using the Quickchange protocol (Stratagene) and are described in the key resources table and figures. To create the mScarlet-KDEL^sec ligand construct, mScarlet with an N-terminal hGH signal peptide and the 16 C-terminal residues of human BiP at its C-terminus, containing the KDEL signal, was cloned into the pcDNA3.1 vector. […] The Golgi marker protein TGN46 was detected by antibody (sheep anti-TGN46 AHP500G; AbD Serotec) and an Alexa 647 conjugated secondary anti-sheep secondary (A-21448, Invitrogen). In Figure 1d and e, endogenous KDELR was detected by antibody (mouse anti-KDELR ADI-VAA-PT048; Enzo Life Sciences) and Alexa 488 conjugated anti-mouse secondary antibody (A-21202, Invitrogen). For retrieval assays in other figures, KDELR-GFP fusion proteins were directly detected by fluorescence. The mScarlet-xDEL fusion proteins were directly detected by fluorescence. […] The fraction of KDEL receptor in the Golgi apparatus was calculated by dividing the Golgi signal by the total cell signal. […]"}, "[2]": {"molecular_target": "T2, human KDELR1 D50N (Homo sapiens, UniProt P24390, D50N)", "T2 construct": "expressed in transfected cells; host or cells: COS-7", "T2 sequence (P24390 whole entry D50N)": "as the sequence (P24390 whole entry N54K/E117Q) above, with D50N, K54N, Q117E counted along it", "test": "ER retrieval assay, KDELR1 D50N-GFP", "excerpt": "as §1"}, "[3]": {"molecular_target": "T3, human KDELR1 D50N/E117Q (Homo sapiens, UniProt P24390, D50N/E117Q)", "T3 construct": "expressed in transfected cells; host or cells: COS-7", "T3 sequence (P24390 whole entry D50N/E117Q)": "as the sequence (P24390 whole entry N54K/E117Q) above, with D50N, K54N counted along it", "test": "ER retrieval assay, KDELR1 D50N/E117Q-GFP", "excerpt": "as §1"}, "[4]": {"molecular_target": "T4, human KDELR1 N54R (Homo sapiens, UniProt P24390, N54R)", "T4 construct": "expressed in transfected cells; host or cells: COS-7", "T4 sequence (P24390 whole entry N54R)": "as the sequence (P24390 whole entry N54K/E117Q) above, with K54R, Q117E counted along it", "test": "ER retrieval assay, KDELR1 N54R-GFP", "excerpt": "as §1"}}, "data": [{"substance": "ADEL [pcDNA3.1 hGHss-mScarlet-H. sapiens BiP639-654K651A (ADEL^SEC), secreted mScarlet fusion with human BiP C-terminus, ADEL signal]", "values": [{"measurement": "ligand-induced receptor retrieval to the ER (in words)", "setting": "[1]", "value": "switched specificity towards ADEL and DDEL"}, {"measurement": "ligand-induced receptor retrieval to the ER (in words)", "setting": "[2]", "value": "abolished the response to all signal variants"}, {"measurement": "ligand-induced receptor retrieval to the ER (in words)", "setting": "[3]", "value": "switched specificity towards ADEL and DDEL"}, {"measurement": "ligand-induced receptor retrieval to the ER (in words)", "setting": "[4]", "value": "did not result in ADEL or DDEL recognition"}]}]}
